In brackets after ≈: the same amount, converted by molar mass. Several values for one entry are separate records, joined by “and”; a condition that tells them apart may be missing. Equal values may be shown once.
Experiments:
T. rubrum (PTCC 5143) = test: Microdilution MIC90, strain K; type: cell-based, Trichophyton rubrum; details: Trichophyton rubrum, PTCC5143, 48 h, filamentous fungi, 48 h at 37 °C, triplicate
Asp. terreus (PTCC 5023) = test: Microdilution MIC90, strain J; type: cell-based, Aspergillus terreus; details: filamentous fungi, 48 h at 37 °C, triplicate
[1] = tested on: Asp. flavus (ATCC 204304); test: Microdilution MIC90, strain G; type: cell-based, Aspergillus flavus; details: Aspergillus flavus, ATCC204304, 48 h, filamentous fungi, 48 h at 37 °C, triplicate
[2] = tested on: FLC-resistant clinical Candida isolate R3 (C. albicans); test: PMIC90, FLC-resistant isolate R3; type: cell-based; details: strain R3, planktonic
PANC-1 = test: MTT cytotoxicity assay, PANC-1; type: cell-based, human; details: 48 h; for toxicity (in words): PANC-1, at 30 and 60 μg/mL
[3] = tested on: FLC-resistant clinical Candida isolate R1 (C. albicans); test: PMIC90, FLC-resistant isolate R1; type: cell-based; details: strain R1, planktonic
[4] = tested on: FLC-resistant clinical Candida isolate R7 (C. glabrata); test: PMIC90, FLC-resistant isolate R7; type: cell-based; details: strain R7, planktonic
[5] = tested on: FLC-resistant clinical C. albicans isolate (R2) biofilm; test: Antibiofilm MTT reduction assay, strain R2; type: cell-based; details: triplicate
[6] = tested on: T. mentagrophytes (PTCC 5054); test: Microdilution MIC90, strain M; type: cell-based; details: Trichophyton mentagrophytes, PTCC5054, 48 h
M. canis (PTCC 5069) = test: Microdilution MIC90, strain O; type: cell-based; details: Microsporum canis, PTCC5069, 48 h
[7] = tested on: FLC-resistant clinical Candida isolate R5 (C. albicans); test: PMIC90, FLC-resistant isolate R5; type: cell-based; details: strain R5, planktonic
Asp. niger (PTCC 5154) = test: Microdilution MIC90, strain I; type: cell-based, Aspergillus niger; details: filamentous fungi, 48 h at 37 °C, triplicate
[8] = MTT cytotoxicity assay, A-431; type: cell-based, human; details: human, A-431 epidermoid carcinoma cells
[9] = tested on: human red blood cells (hRBCs); test: Hemolysis assay; type: cell-based; details: 100 μg/mL, 2 h at 37 °C
C. albicans (ATCC 10231) [10] = test: Membrane permeabilization assay; type: cell-based; details: 8b, 8c at 1 × MIC, 2 × MIC, 4 × MIC (0.5, 1, 2 μg/mL); AMB 1 μg/mL; 3 h at 28 °C
C. glabrata (ATCC 90030) = test: Microdilution MIC90, strain C; type: cell-based; details: yeast, 24 h at 37 °C, triplicate
[11] = tested on: Asp. nidulans (PTCC 5014); test: Microdilution MIC90, strain F; type: cell-based, Aspergillus nidulans; details: Aspergillus nidulans, PTCC5014, 48 h, filamentous fungi, 48 h at 37 °C, triplicate
[12] = tested on: FLC-resistant clinical Candida isolate R4 (C. albicans); test: PMIC90, FLC-resistant isolate R4; type: cell-based; details: strain R4, planktonic
[13] = tested on: C. parapsilosis (ATCC 22019); test: Microdilution MIC90, strain D; type: cell-based; details: 24 h
HDF normal cells = test: MTT cytotoxicity assay, HDF; type: cell-based, human; details: HDF normal cell line, up to 100 μg/mL, 48 h
C. albicans (ATCC 10231) [14] = test: Microdilution MIC90, strain A; type: cell-based; details: strain A; for MIC90: 24 h, yeast, 24 h at 37 °C, triplicate; for fold greater potency than that of FLC: from MIC values
[15] = tested on: T. schoenleinii (PTCC 5221); test: Microdilution MIC90, strain N; type: cell-based; details: Trichophyton schoenleinii, PTCC5221, 48 h
[16] = tested on: C. tropicalis (PTCC 5028); test: Microdilution MIC90, strain E; type: cell-based; details: 24 h
C. albicans (ATCC 10231) [17] = test: Time-kill assay; type: cell-based; details: 24 h period; for time-kill effect at MIC: at MIC (0.5 μg/mL)
[18] = tested on: Asp. fumigatus (PTCC 5009); test: Microdilution MIC90, strain H; type: cell-based; details: filamentous fungi, 48 h at 37 °C, triplicate
[19] = tested on: FLC-resistant clinical Candida isolate R2 (C. albicans); test: PMIC90, FLC-resistant isolate R2; type: cell-based; details: strain R2, planktonic
[20] = tested on: FLC-resistant clinical C. albicans isolate (R1) biofilm; test: Antibiofilm MTT reduction assay, strain R1; type: cell-based; details: triplicate
C. krusei (ATCC 6258) = test: Microdilution MIC90, strain B; type: cell-based; details: for MIC90: 24 h, yeast, 24 h at 37 °C, triplicate; for fold greater potency than that of FLC: from MIC values
[21] = tested on: FLC-resistant clinical Candida isolate R6 (C. albicans); test: PMIC90, FLC-resistant isolate R6; type: cell-based; details: strain R6, planktonic
[22] = tested on: Microsporum gypseum (PTCC 5070); test: Microdilution MIC90, strain L; type: cell-based; details: filamentous fungi, 48 h at 37 °C, triplicate
[23] = tested on: FLC-resistant clinical Candida isolates (R1–R7); test: PMIC, seven FLC-resistant clinical Candida isolates; type: cell-based; details: read-out: MIC (growth inhibition concentrations)
C. albicans (ATCC 10231) [24] = test: Murine model of systemic candidiasis; type: in vivo; details: neutropenic mice (n = 5), 15 mg/kg oral gavage, left kidney tissue
A-431 = test: MTT cytotoxicity assay, A-431; type: cell-based, human; details: 48 h, MTT
[25] = tested on: dermatophyte isolates K–O; test: Microdilution MIC, dermatophyte isolates K–O; type: cell-based
[26] = Aspergillus terreus, PTCC5023, 48 h
[27] = Aspergillus niger, PTCC5154, 48 h
[28] = at 4 × MIC (2 μg/mL for 8b, 8c; 64 μg/mL for FLC)
[29] = Aspergillus fumigatus, PTCC5009, 48 h

Row | Structure (SMILES) | MIC90 (T. rubrum (PTCC 5143)) | MIC90 (Asp. terreus (PTCC 5023); [26]) | MIC90 [1] | PMIC90 [2] | PMIC90 [3] | PMIC90 [4] | MIC90 [6] | MIC90 (M. canis (PTCC 5069)) | PMIC90 [7] | MIC90 (Asp. niger (PTCC 5154); [27]) | MIC90 (C. glabrata (ATCC 90030); 24 h) | PMIC90 [12] | MIC90 [13] | MIC90 (C. albicans (ATCC 10231) [14]) | MIC90 [15] | MIC90 [16] | MIC90 [18, 29] | PMIC90 [19] | MIC90 (C. krusei (ATCC 6258)) | PMIC90 [21] | further results
1 | COc1ccc(NC(=O)Nc2nnc(SCC(O)(Cn3cncn3)c3ccc(F)cc3F)s2)cc1 (stereo not drawn) [Compound 8b, 1-(5-((2-(2,4-Difluorophenyl)-2-hydroxy-3-(1H-1,2,4-triazol-1-yl)propyl)thio)-1,3,4-thiadiazol-2-yl)-3-(4-methoxyphenyl)urea] | 2 µg/mL (≈ 3.85 µM) | 2 to 4 µg/mL (≈ 3.85 to 7.7 µM) | 8 µg/mL (≈ 15.4 µM) | 2 µg/mL | 0.25 µg/mL | 1 µg/mL | 4 µg/mL (≈ 7.7 µM) | 8 µg/mL (≈ 15.4 µM) | 2 µg/mL | 2 to 4 µg/mL (≈ 3.85 to 7.7 µM) | 1 to 16 µg/mL (≈ 1.92 to 30.8 µM) | 1 µg/mL | 2 µg/mL (≈ 3.85 µM) | 0.5 µg/mL (≈ 0.962 µM) | 8 µg/mL (≈ 15.4 µM) | 1 µg/mL (≈ 1.92 µM) | 2 to 4 µg/mL (≈ 3.85 to 7.7 µM) | 0.5 µg/mL | 0.5 µg/mL (≈ 0.962 µM) | 2 µg/mL | MIC90 (Asp. terreus (PTCC 5023)): 4 μg·mL^–1; toxicity (in words) (PANC-1): no toxicity; SMIC90 (sessile minimum inhibitory concentration that reduced the metabolic activity of biofilms by 90%) [5]: 1 µg/mL; MIC90 (Asp. niger (PTCC 5154)): 4 μg·mL^–1; viability at 48 h, 100 μg/mL [8]: < 50%; hemolysis (in words) [9]: limited hemolysis; cellular uptake of the PI dye (C. albicans (ATCC 10231) [10]): none of our compounds 8b and 8c (at 1 × MIC, 2 × MIC, or 4 × MIC) induced the cellular uptake of the PI dye; MIC90 (C. glabrata (ATCC 90030)): 1 μg·mL^–1; MIC90 [11]: 8 µg/mL (≈ 15.4 µM); toxicity (in words) (HDF normal cells): none of the active compounds displayed toxicity; fold greater potency than that of FLC (C. albicans (ATCC 10231) [14]): 32 fold; time-kill effect at 4 × MIC (C. albicans (ATCC 10231) [17]; [28]): fungicidal activity of compound 8b significantly enhanced; time-kill effect at MIC (C. albicans (ATCC 10231) [17]): fungicidal effect; MIC90 [18]: 1 μg·mL^–1; SMIC90 (sessile minimum inhibitory concentration that reduced the metabolic activity of biofilms by 90%) [20]: 0.5 µg/mL; fold greater potency than that of FLC (C. krusei (ATCC 6258)): 32 fold; MIC90 [22]: 4 μg·mL^–1; MIC [23]: 0.25 to 2 µg/mL (≈ 0.481 to 3.85 µM); kidney fungal burden, CFU/g (mean ± SD) (C. albicans (ATCC 10231) [24]): 414 CFU/g and 414 ± 67.7 ^b CFU/g
2 | O=C(Nc1ccc(F)cc1)Nc1nnc(SCC(O)(Cn2cncn2)c2ccc(F)cc2F)s1 (stereo not drawn) [Compound 8c, 1-(5-((2-(2,4-Difluorophenyl)-2-hydroxy-3-(1H-1,2,4-triazol-1-yl)propyl)thio)-1,3,4-thiadiazol-2-yl)-3-(4-fluorophenyl)urea] | 4 µg/mL (≈ 7.88 µM) | 0.5 µg/mL (≈ 0.985 µM) | 16 µg/mL (≈ 31.5 µM) | 2 µg/mL | 0.5 µg/mL | 2 µg/mL | 2 µg/mL (≈ 3.94 µM) | 16 µg/mL (≈ 31.5 µM) | 2 µg/mL | 0.5 µg/mL (≈ 0.985 µM) | 0.5 µg/mL (≈ 0.985 µM) | 2 µg/mL | 2 µg/mL (≈ 3.94 µM) | 0.5 µg/mL (≈ 0.985 µM) | 16 µg/mL (≈ 31.5 µM) | 0.5 µg/mL (≈ 0.985 µM) | 0.5 µg/mL (≈ 0.985 µM) | 1 µg/mL | 0.5 µg/mL (≈ 0.985 µM) | 2 µg/mL | cell survival (PANC-1; PANC-1, 100 μg/mL): > 40%; toxicity (in words) (PANC-1): no toxicity; SMIC90 (sessile minimum inhibitory concentration that reduced the metabolic activity of biofilms by 90%) [5]: 1 µg/mL; toxicity (in words) (A-431; A-431, 100 μg/mL): some toxicity levels; toxicity (in words) (A-431; A-431, up to 60 μg/mL): no toxicity; hemolysis (in words) [9]: limited hemolysis; cellular uptake of the PI dye (C. albicans (ATCC 10231) [10]): none of our compounds 8b and 8c (at 1 × MIC, 2 × MIC, or 4 × MIC) induced the cellular uptake of the PI dye; MIC90 [11]: 16 µg/mL (≈ 31.5 µM); toxicity (in words) (HDF normal cells): none of the active compounds displayed toxicity; fold greater potency than that of FLC (C. albicans (ATCC 10231) [14]): 32 fold; time-kill effect at 4 × MIC (C. albicans (ATCC 10231) [17]; [28]): high fungicidal effect; time-kill effect at MIC (C. albicans (ATCC 10231) [17]): fungistatic effect; SMIC90 (sessile minimum inhibitory concentration that reduced the metabolic activity of biofilms by 90%) [20]: 1 µg/mL; fold greater potency than that of FLC (C. krusei (ATCC 6258)): 32 fold; MIC [23]: 0.25 to 2 µg/mL (≈ 0.493 to 3.94 µM); kidney fungal burden, CFU/g (mean ± SD) (C. albicans (ATCC 10231) [24]): 438 CFU/g and 438 ± 54.8 ^b CFU/g
3 | OC(Cn1cncn1)(Cn1cncn1)c1ccc(F)cc1F [FLC, Fluconazole, reference compound] | 1 µg/mL (≈ 3.27 µM) | 4 µg/mL (≈ 13.1 µM) | 2 µg/mL (≈ 6.53 µM) | >64 µg/mL | >64 µg/mL | >64 µg/mL | 4 µg/mL (≈ 13.1 µM) | 1 µg/mL (≈ 3.27 µM) | >64 µg/mL | 4 µg/mL (≈ 13.1 µM) | 16 µg/mL (≈ 52.2 µM) | >64 µg/mL | 4 µg/mL (≈ 13.1 µM) | 16 µg/mL (≈ 52.2 µM) | 2 µg/mL (≈ 6.53 µM) | 4 µg/mL (≈ 13.1 µM) | 4 µg/mL (≈ 13.1 µM) | >64 µg/mL | 16 µg/mL (≈ 52.2 µM) | >64 µg/mL | time-kill effect at 4 × MIC (C. albicans (ATCC 10231) [17]; […]; 64 μg/mL for FLC)): no significant effect; MIC [25]: 1 to 4 µg/mL (≈ 3.27 to 13.1 µM); MIC [23]: ≥ 64 µg/mL; kidney fungal burden, CFU/g (mean ± SD) (C. albicans (ATCC 10231) [24]): 512 CFU/g and 512 ± 63.5 ^b CFU/g
